Results: patent publication US20220226343A1, “3-AMINO-4-[4-[4 (DIMETHYLCARBAMOYL) PHENYL]-1,4-DIAZEPAN-1-YL]THIENO[2,3-B]PYRIDINE-2-CARBOXAMIDE FOR USE IN CANCER THERAPY AND FORMULATIONS COMPRISING THE SAME” (University of South Carolina, priority 2019, published 2022)
Values after ≈ are worked out from the molar mass of the structure shown. Read-outs that look alike come from different tables or passages of the source.

Experiments:
[1] = MTD, oral gavage b.i.d. 14 days, CD-1 mice; type: in vivo, mouse; conditions: for detrimental effects: 14 days
Description: The highest dose (120 mg/kg b.i.d.) caused about 10% body weight loss in female mice after 7-10 days of treatment but no further deterioration was observed through the rest of the treatment period (FIG. 16A).

[2] = Mouse PK, intravenous 0.5 mg/kg; type: in vivo; conditions: i.v. 0.5 mg/kg, male FVB mice, mixture
CDK8/19 = assay: NFκB reporter assay in parental 293 reporter cells; type: cell-based
Text: We have used a cell-based assay to measure the inhibition of CDK8/19 activity by thienopyridine derivatives. This assay, based on the role of CDK8/19 in NFκB-driven transcription (Chen, 2017), measures the effects of CDK8/19 on the expression of firefly luciferase reporter from a NFκB-dependent promoter in 293 cells. Lentiviral vector pHAGE-NFKB-TA-LUC-UBC-dTomato-W (Addgene #49335) was introduced into 293 cells and a clonal cell line showing the strongest induction of luciferase expression upon TNFα treatment was established and used as the reporter cell line. As a control for CDK8/19 dependence of NFκB inhibition, we have also introduced the same reporter construct into 293 cells with CRISPR/CAS9 knockout of both CDK8 and CDK19.
FIG. 2C and Table 1 compares the IC50 values for different thienopyridines measured in the NFκB reporter assay in parental 293-derived reporter cell line to the cell-based activity values measured for the same compounds by Saito (2013) based on their effect on alkaline phosphatase (ALPase), an indicator of differentiation to osteoblasts in the mouse bone marrow stromal cell line ST2. The latter effects are expressed as EC200, a concentration that enhances ALPase activity to 200% of control.

MV4-11 cells = assay: cells; conditions: Homo sapiens, MV4-11, read-out: Inhibition Potency MV4-11-Luc Assay
[3] = system: luciferase-expressing MV4-11 cells; assay: MV4-11 leukemia in female NSG mice (BLI); type: in vivo, mouse; conditions: for inhibition of leukemia growth: 23 days, BLI
MYC-CaP-CR tumors = MYC-CaP-CR tumors subcutaneous in intact FVB male mice; type: in vivo, mouse
Text: MYC-CaP-CR cells (Ellis L. et al., 2012. Prostate 72(6):587-591) were selected for castration resistance from genetically engineered MYC-CaP cells that express MYC from an AR-responsive promoter (Watson P A, et al., 2005. Cancer Res 65(24):11565-11571). Castration resistance in these cells is associated with the overexpression of full-length AR rather than an AR variant, such as AR-V7 in 22rv1 (Olson B M, et al., 2017. Cancer immunology research 5(12):1074-1085).

CSNK1D = CSNK1D (Homo sapiens, UniProt P48730); assay: Kd Elect binding assay (DiscoverX)
CSNK1D, sequence (P48730 whole entry): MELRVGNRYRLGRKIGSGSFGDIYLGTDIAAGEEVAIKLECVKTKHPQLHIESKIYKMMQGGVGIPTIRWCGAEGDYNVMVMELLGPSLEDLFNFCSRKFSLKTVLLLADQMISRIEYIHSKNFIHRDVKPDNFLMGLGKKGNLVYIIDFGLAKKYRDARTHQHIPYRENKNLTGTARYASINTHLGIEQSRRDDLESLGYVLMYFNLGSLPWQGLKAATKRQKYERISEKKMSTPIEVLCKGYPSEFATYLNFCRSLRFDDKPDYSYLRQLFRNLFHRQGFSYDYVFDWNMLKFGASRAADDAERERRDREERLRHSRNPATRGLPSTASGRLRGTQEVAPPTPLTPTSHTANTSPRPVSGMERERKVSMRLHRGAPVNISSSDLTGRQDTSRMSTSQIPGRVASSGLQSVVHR

[4] = Oral PK by formulation, male CD-1 mice 30 mg/kg; type: in vivo, mouse; conditions: for Elimination rate k: male CD-1
MDA-MB-468 xenografts = assay: MDA-MB-468 TNBC xenografts in NSG female mice; conditions: 250 ppm medicated diet plus 5 then 8 mg/kg daily gavage, 66 days
[5] = system: 4T1 murine TNBC lung metastasis; assay: 4T1 breast cancer metastasis survival after primary tumor removal; type: in vivo, mouse; conditions: 15u 25 mg/kg oral b.i.d. after removal of the primary 4T1 tumor
Description: 4T1 is a murine triple-negative breast cancer (TNBC) cell line, which is highly metastatic to the lungs. […] Parental and CDK8-knockdown 4T1 cells (n=10) were injected orthotopically in the mammary fat pad and the primary tumors were removed 17 days later. Following surgery, all the mice eventually died with lung metastases. […] However, the loss of CDK8 was associated with a strong increase in the survival of mice (FIG. 10C). […]

[6] = Solubility of 15u in aqueous solution and vehicles
[7] = system: alkaline phosphatase (ALPase); conditions: concentration that enhances ALPase activity to 200% of control, ST2 cells; cited from earlier work
[8] = MTD, medicated diet 4 or 5 weeks, CD-1 mice; type: in vivo, mouse; conditions: female CD-1 mice, 1000 ppm medicated diet, first week
Description: In another long-term MTD in vivo assay, groups of male and female CD-1 mice were fed regular diet (control) or 15u-medicated diet (500 ppm or 1000 ppm) for 4 or 5 weeks (FIG. 16B). The daily doses of 500 ppm and 1000 ppm groups were estimated to be about 50-100 mg/kg and 100-200 mg/kg, respectively, based on daily diet consumption.

[9] = Oral PK, male Cynomolgus monkeys 25 mg/kg; conditions: Liquid formulation 2, oral 25 mg/kg
[10] = system: PSA expression in CRPC cell line C4-2; assay: PSA expression in cell culture supernatant of C4-2 cells; type: cell-based; conditions: 96 h; C4-2 culture supernatant, 4-day treatment, FBS-supplemented regular media
Text: CDK8/19 inhibition decreases the expression of certain androgen-receptor (AR) inducible genes including PSA, the most common marker of prostate cancer, and the growth of castration-refractory prostate cancers (CRPC).

[11] = Oral PK of a mixture of 15w and 15u, 30 mg/kg, female CD1 mice; conditions: oral 30 mg/kg each
[12] = system: CRPC cell line 22rv1 xenograft
[13] = 50 mg/kg orally daily, castrated male nude mice

CN(C)C(=O)c1ccc(N2CCCN(c3ccnc4sc(C(N)=O)c(N)c34)CC2)cc1 [Compound 15u, 3-amino-4-(4-(4-(dimethylcarbamoyl)phenyl)-1,4-diazepan-1-yl)thieno[2,3-b]pyridine-2-carboxamide]
body weight loss ([1]; female CD-1 mice, 120 mg/kg b.i.d., after 7-10 days of treatment): about 10%
detrimental effects ([1]; female CD-1 mice, doses up to 60 mg/kg b.i.d.): No detrimental effects were observed
detrimental effects ([1]; male CD-1 mice, 60 and 120 mg/kg b.i.d.): No detrimental effects were observed
Elimination rate [2]: 1.98 h⁻¹
IC50 (CDK8/19; NFκB Activity Assay as described in Example 1, read-out: Inhibition Potency HEK293-NFkB-Luc Assay): 0.0103 µM
IC50 (CDK8/19; parental 293-derived reporter cell line, read-out: NFκB activity Assay IC50): 0.01 µM
IC50 (MV4-11 cells): 0.03 µM
inhibition of leukemia growth ([3]; 30 mg/kg twice daily by gavage): 94%
inhibition of leukemia growth ([3]; medicated chow 1 g/kg): 99.7%
survival post treatment ([3]; oral gavage): superior survival rates
MYC-CaP-CR tumor volume and weight (MYC-CaP-CR tumors): modest effect
Kd (CSNK1D): 0.86 µM
Elimination rate k ([4]; LF-V#2, oral 30 mg/kg): 0.22 h⁻¹
Elimination rate k ([4]; Sus-V#1, oral 30 mg/kg): 0.37 h⁻¹
Elimination rate k ([4]; Sus-V#2, oral 30 mg/kg): 0.38 h⁻¹
increase of AUC, Liquid formulation 2 vs both suspension vehicles ([4]; oral 30 mg/kg, male CD-1 mice): 2-3 fold
increase of t1/2, Liquid formulation 2 vs both suspension vehicles ([4]; oral 30 mg/kg, male CD-1 mice): ~1.7 fold
MDA-MB-468 tumor volume (MDA-MB-468 xenografts): significant reduction in tumor volume
MDA-MB-468 tumor weights at the end of the study (MDA-MB-468 xenografts): significantly lower
mouse body weights (MDA-MB-468 xenografts): no detrimental effects
mouse survival of the metastatic disease [5]: significantly increased mouse survival
amount of the compound in the liquid phase ([6]; 5% DMSO, 20% HPBCD): 0.2 mg/mL
solubility ([6]; Liquid formulation 1, pH 2.1, aqueous with cosolvent or surfactant or cyclodextrin): ~5000 µg/mL (≈ 11.4 mM)
solubility ([6]; Liquid formulation 2, organic solvent or mixture): ≤ 20000 µg/mL
solubility ([6]; aqueous solution, pH 7, water): < 10 µg/mL
ALP activity Assay EC200 [7]: 31.9 nM
weight loss [8]: 5-10%
adverse effects [9]: no adverse effects were observed
IC50 [10]: 0.028 µM
average serum concentration at the latest timepoint (8 hrs) as % of Cmax [11]: 64.4 % of Cmax
22rv1 tumor growth over the long term ([12]; 50 mg/kg once a day, 25 mg/kg twice a day, 50 mg/kg twice a day): drastically inhibited 22rv1 tumor growth
22rv1 xenograft tumor growth [12, 13]: strongly suppressed the tumor growth
adverse effects and mouse body weight [12, 13]: no apparent adverse effects and no diminution of mouse body weight
